Laboratory results taken from ChEMBL document CHEMBL1150074, “Cytotoxic aromatic triterpenes from Maytenus ilicifolia and Maytenus chuchuhuasca” (J Nat Prod, 1994).
Converted amounts (≈) assume the structure as drawn.

Legend:
Assay type in all cases: functional, cell-based
[1] = system: KB; assay: Cytotoxicity against human KB cells by MTT assay
[2] = system: P388; assay: Cytotoxicity against mouse P388 cells by MTT assay
[3] = system: L1210; assay: Cytotoxicity against mouse L1210 cells by MTT assay

Row | Compound | IC50 [1] [µg/mL] | IC50 [2] [µg/mL] | IC50 [3] [µg/mL]
1 | COC(=O)[C@]1(C)CC[C@]2(C)CC[C@]3(C)C4=CC=C5C(=CC(=O)C(O)=C5C)[C@]4(C)CC[C@@]3(C)[C@@H]2C1 [PRISTIMERIN] | 0.55 (≈ 1.18 µM) | 0.12 (≈ 0.258 µM) | 0.36 (≈ 0.775 µM)
2 | CC1=C(O)C(=O)C=C2C1=CC=C1[C@@]2(C)CC[C@@]2(C)[C@@H]3C[C@@H](C)C(=O)[C@@H](O)[C@]3(C)CC[C@]12C [TINGENIN B] | – | 0.012 (≈ 0.0275 µM) | –
3 | COc1c(O)cc2c(c1C)C(=O)C=C1[C@@]2(C)CC[C@]2(C)[C@@H]3C[C@@H](C)C(=O)C[C@]3(C)CC[C@]12C | 11 (≈ 24.4 µM) | > 100 | > 100
4 | Cc1c(O)c(O)cc2c1C(=O)C=C1[C@@]2(C)CC[C@@]2(C)[C@@H]3C[C@@H](C)C(=O)C[C@]3(C)CC[C@]12C [6-OXOTINGENOL] | 30 (≈ 68.7 µM) | 2.6 (≈ 5.96 µM) | 6 (≈ 13.7 µM)
5 | COC(=O)[C@]1(C)CC[C@]2(C)CC[C@]3(C)C4=CC(=O)c5c(cc(O)c(O)c5C)[C@]4(C)CC[C@@]3(C)[C@@H]2C1 | 2.8 (≈ 5.83 µM) | 1.5 (≈ 3.12 µM) | 2.8 (≈ 5.83 µM)
6 | CC1=C(O)C(=O)C=C2C1=CC=C1[C@@]2(C)CC[C@@]2(C)[C@@H]3C[C@@H](C)C(=O)C[C@]3(C)CC[C@]12C [TINGENONE] | 0.28 (≈ 0.666 µM) | 0.041 (≈ 0.0975 µM) | 0.14 (≈ 0.333 µM)
7 | COc1c(O)cc2c(c1CO)C(=O)C=C1[C@@]2(C)CC[C@]2(C)[C@@H]3C[C@@H](C)C(=O)[C@@H](O)[C@]3(C)CC[C@]12C | – | 4.3 (≈ 8.91 µM) | –
